# Where two headings read alike, the source gives them in different places.
# Assays:
# OVCAR-4 = test: Inhibition of tumor cell proliferation, OVCAR-4; assay type: cell-based; settings: Homo sapiens
# Experimental: (§1) The biological activity of compounds of this invention was evaluated by measuring their inhibitory effect on the proliferation of various tumor cell lines. HCT-116 is a human colon cancer cell line. LNCap is a human prostate cancer cell line. SiHa is an HPV-16 positive human cervical cancer line.
# (§2) Table D presents additional data for the activity of compounds A-1 and A-4 against various cell lines. In some instances, comparative data against leptomycin B (LMB) and/or compound VI (Dong et al., US 2005/0272727 A1 (2005) is also provided.
# (§3) The additional cell lines tested against represent a variety of different cancers: bladder cancer (UM-UC-3), breast cancer (BT474, HCC1937, MDA-MB468, NCI-ADR), CNS cancer (U87MG (glioma), SKNSH (neuroblastoma)), colon cancer (LoVo, LS411N, LS513), head and neck cancer (CAL-27, FaDu), leukemia (CCRF-CEM, MOLT-4), liver cancer (HepG2), lung cancer (A549, NCI-H23, NCI-H358), melanoma (Colo829), ovarian cancer (OVCAR-4), pancreatic cancer (BxPC-3, Mia-PaCa2), prostate cancer (22Rv1, PC-3), and renal cancer (A-498, Caki-1).
# NCI-ADR = test: Inhibition of tumor cell proliferation, NCI-ADR; assay type: cell-based; settings: Homo sapiens, NCI/ADR-RES, read-out: IC50, nM, NCI-ADR
# Experimental: as §1, §2, §3
# A-498 = test: Inhibition of tumor cell proliferation, A-498; assay type: cell-based; settings: Homo sapiens, A498; exposure time 1 h
# Experimental: as §1, §2, §3
# LS513 = test: Inhibition of tumor cell proliferation, LS513; assay type: cell-based; settings: Homo sapiens, LS-513
# Experimental: as §1, §2, §3
# UM-UC-3 = test: Inhibition of tumor cell proliferation, UM-UC-3; assay type: cell-based; settings: Homo sapiens, read-out: IC50, nM, UM-UC-3
# Experimental: as §1, §2, §3
# BT474 = test: Inhibition of tumor cell proliferation, BT474; assay type: cell-based; settings: Homo sapiens, BT-474
# Experimental: as §1, §2, §3
# HCT-116 = test: Inhibition of tumor cell proliferation, HCT-116; assay type: cell-based, human; settings: Homo sapiens, read-out: Cancer Cell Line (IC50, nM) HCT-116
# Experimental: as §1
# FaDu = test: Inhibition of tumor cell proliferation, FaDu; assay type: cell-based; settings: Homo sapiens
# Experimental: as §1, §2, §3
# NCI-H23 = test: Inhibition of tumor cell proliferation, NCI-H23; assay type: cell-based; settings: Homo sapiens
# Experimental: as §1, §2, §3
# Mia-PaCa2 = test: Inhibition of tumor cell proliferation, Mia-PaCa2; assay type: cell-based; settings: Homo sapiens, MIA PaCa-2
# Experimental: as §1, §2, §3
# HCC1937 = test: Inhibition of tumor cell proliferation, HCC1937; assay type: cell-based; settings: Homo sapiens
# Experimental: as §1, §2, §3
# HepG2 = test: Inhibition of tumor cell proliferation, HepG2; assay type: cell-based; settings: Homo sapiens
# Experimental: as §1, §2, §3
# SiHa = test: Inhibition of tumor cell proliferation, SiHa; assay type: cell-based, human; settings: Homo sapiens, SiHa, read-out: Cancer Cell Line (IC50, nM) SiHa
# Experimental: as §1
# NCI-H358 = test: Inhibition of tumor cell proliferation, NCI-H358; assay type: cell-based; settings: Homo sapiens
# Experimental: as §1, §2, §3
# CAL-27 = test: Inhibition of tumor cell proliferation, CAL-27; assay type: cell-based; settings: Homo sapiens
# Experimental: as §1, §2, §3
# LS411N = test: Inhibition of tumor cell proliferation, LS411N; assay type: cell-based; settings: Homo sapiens, LS-411N
# Experimental: as §1, §2, §3
# 22Rv1 = test: Inhibition of tumor cell proliferation, 22Rv1; assay type: cell-based; settings: Homo sapiens
# Experimental: as §1, §2, §3
# LNCap = test: Inhibition of tumor cell proliferation, LNCap; assay type: cell-based, human; settings: Homo sapiens, LNCaP, read-out: Cancer Cell Line (IC50, nM) LNCap
# Experimental: as §1
# CRM1 substrate RanBP1 = test: Nuclear export block (RanBP1 localization, recovery after compound removal); assay type: cell-based; settings: recovery of cytoplasmic RanBP1 localization after compound washout (typically 1 h exposure; 8, 24 or 48 h recovery)
# Experimental: The nuclear export blocking capability of compounds of this invention was evaluated as follows:
# 1-5×10^4 cells were seeded onto 12 mm glass coverslips or wells of a chamber slide (for example, Lab-Tek #177445). Cells were grown overnight at 37° C. to allow cells to attach to the surface. Media was removed and replaced with media containing the desired test compound and incubated the required time period (typically 1 h). For recovery experiments, cells were washed with PBS or media and incubated in media without test compound for the desired recovery periods (typically 8, 24, or 48 h). The media was removed and coverslips/wells were washed with PBS pH 7.4 for 1 minute. Coverslips or slides were fixed with 3.7% formaldehyde in PBS for 20 minutes at room temperature, washed three times in PBS, and stained for the CRM1 substrate RanBP1.
# Coverslips or chamber slides were permeabilized and blocked in 10% donkey serum, 0.1% Triton X-100 in PBS for 30 minutes at room temperature. Primary antibodies were diluted in PBS and incubated for 1 hour at room temperature: goat-anti-RanBP1 (Santa Cruz Biotechnology, sc-1160; 1:50 dilution) and mouse-anti-tubulin (Sigma, T9026; 1:400). Cells were washed 3×5 minutes in PBS. Secondary antibodies donkey-anti-goat Cy3 (705-165-147, Jackson Immunoresearch) and donkey anti-mouse FITC (715-095-150, Jackson Immunoresearch) were diluted 1:200 in PBS and incubated for 1 hour at room temperature. Secondary antibody was removed and cells were stained with a nuclear dye such as DAPI (Sigma, D8417; 2.5 ug/mL in PBS) or Hoechst 33342 (Molecular Probes, H3570; 100 ng/mL in PBS) for 5 minutes at room temperature. Cells were washed 3×5 minutes in PBS and coverslips were mounted with FluorSave (EMD Biosciences, 80058-108). Nuclear (N) or cytoplasmic (C) localization of RanBP1 was examined using a 40× objective on a Zeiss Axiovert 200 inverted epiflourescence microscope. Nuclear localization (N>C) was confirmed after the initial drugging period.
# U87MG = test: Inhibition of tumor cell proliferation, U87MG; assay type: cell-based; settings: Homo sapiens, U-87 MG
# Experimental: as §1, §2, §3
# Colo829 = test: Inhibition of tumor cell proliferation, Colo829; assay type: cell-based; settings: Homo sapiens, COLO-829
# Experimental: as §1, §2, §3
# A549 = test: Inhibition of tumor cell proliferation, A549; assay type: cell-based; settings: Homo sapiens, A549, 1 h, read-out: IC50, nM, A549
# Experimental: as §1, §2, §3
# PC-3 = test: Inhibition of tumor cell proliferation, PC-3; assay type: cell-based; settings: Homo sapiens
# Experimental: as §1, §2, §3
# Caki-1 = test: Inhibition of tumor cell proliferation, Caki-1; assay type: cell-based; settings: Homo sapiens, exposure time 1 h
# Experimental: as §1, §2, §3
# CCRF-CEM = test: Inhibition of tumor cell proliferation, CCRF-CEM; assay type: cell-based; settings: Homo sapiens, exposure time 72 h
# Experimental: as §1, §2, §3
# MOLT-4 = test: Inhibition of tumor cell proliferation, MOLT-4; assay type: cell-based; settings: Homo sapiens, exposure time 72 h
# Experimental: as §1, §2, §3
# SKNSH = test: Inhibition of tumor cell proliferation, SKNSH; assay type: cell-based; settings: Homo sapiens, SK-N-SH, read-out: IC50, nM, SKNSH
# Experimental: as §1, §2, §3
# MDA-MB-468 = test: Inhibition of tumor cell proliferation, MDA-MB-468; assay type: cell-based; settings: Homo sapiens, exposure time 1 h
# Experimental: as §1, §2, §3
# LoVo = test: Inhibition of tumor cell proliferation, LoVo; assay type: cell-based; settings: Homo sapiens, exposure time 1 h
# Experimental: as §1, §2, §3
smiles,measurement,setting,value
CC(=C/[C@H](C)C/C=C/C(C)=C/[C@@H](C)C(=O)[C@@H](C)[C@H](OC(N)=O)[C@@H](C)C/C(C)=C/COC(N)=O)/C=C/[C@H]1CC=CC(=O)O1 [Compound A-4],IC50,OVCAR-4; exposure time 1 h,80 nM
same,IC50,OVCAR-4; exposure time 72 h,8.8 nM
same,IC50,NCI-ADR; 1 h,771 nM
same,IC50,NCI-ADR; 72 h,71.3 nM
same,IC50,A-498,16 nM
same,IC50,LS513; exposure time 1 h,6.3 nM
same,IC50,LS513; exposure time 72 h,1 nM
same,IC50,"UM-UC-3; UMUC3, 1 h",7 nM
same,IC50,"UM-UC-3; UMUC3, 72 h",1.4 nM
same,IC50,BT474; exposure time 1 h,3.8 nM
same,IC50,BT474; exposure time 72 h,2.3 nM
same,IC50,"HCT-116; HCT-116, 1 h",13.1 nM
same,IC50,"HCT-116; HCT-116, 72 h",2.2 nM
same,IC50,FaDu; exposure time 1 h,27.9 nM
same,IC50,FaDu; exposure time 72 h,1.6 nM
same,IC50,NCI-H23; exposure time 1 h,8.5 nM
same,IC50,NCI-H23; exposure time 72 h,1.3 nM
same,IC50,Mia-PaCa2; exposure time 1 h,49.7 nM
same,IC50,Mia-PaCa2; exposure time 72 h,10.8 nM
same,IC50,HCC1937; exposure time 1 h,42.3 nM
same,IC50,HCC1937; exposure time 72 h,7.3 nM
same,IC50,HepG2; exposure time 1 h,7.8 nM
same,IC50,HepG2; exposure time 72 h,0.8 nM
same,IC50,SiHa; 1 h,3.6 nM
same,IC50,SiHa; 72 h,0.8 nM
same,IC50,NCI-H358; exposure time 1 h,5.6 nM
same,IC50,NCI-H358; exposure time 72 h,0.7 nM
same,IC50,CAL-27; exposure time 1 h,2.8 nM
same,IC50,CAL-27; exposure time 72 h,0.5 nM
same,IC50,LS411N; exposure time 1 h,9.4 nM
same,IC50,LS411N; exposure time 72 h,1.6 nM
same,IC50,22Rv1; exposure time 1 h,4.6 nM
same,IC50,22Rv1; exposure time 72 h,0.7 nM
same,IC50,LNCap; 1 h,6.6 nM
same,IC50,LNCap; 72 h,1.5 nM
same,Nuclear Export Block,CRM1 substrate RanBP1,Moderate recovery
same,IC50,U87MG; exposure time 1 h,25.5 nM
same,IC50,U87MG; exposure time 72 h,1.5 nM
same,IC50,Colo829; exposure time 1 h,4.6 nM
same,IC50,Colo829; exposure time 72 h,0.9 nM
CC(=C/[C@H](C)C/C=C/C(C)=C/[C@@H](C)C(=O)[C@@H](C)[C@H](O)[C@@H](C)C/C(C)=C/COC(=O)NCc1ccccc1)/C=C/[C@H]1CC=CC(=O)O1 [Compound A-1],IC50,A549,23.5 nM
same,IC50,NCI-ADR; 1 h,194 nM
same,IC50,NCI-ADR; 72 h,20.6 nM
same,IC50,A-498,16 nM
same,IC50,PC-3; exposure time 1 h,7.4 nM
same,IC50,PC-3; exposure time 72 h,2.7 nM
same,IC50,Caki-1,6.6 nM
same,IC50,"HCT-116; HCT-116, 1 h",14.9 nM
same,IC50,"HCT-116; HCT-116, 72 h",3.3 nM
same,IC50,CCRF-CEM,4.2 nM
same,IC50,MOLT-4,3.2 nM
same,IC50,SiHa; 1 h,3.6 nM
same,IC50,SiHa; 72 h,1.1 nM
same,IC50,LNCap; 1 h,4.7 nM
same,IC50,LNCap; 72 h,1.8 nM
same,Nuclear Export Block,CRM1 substrate RanBP1,Slow recovery
same,IC50,SKNSH; 1 h,5.1 nM
same,IC50,SKNSH; 72 h,1.5 nM
same,IC50,MDA-MB-468,30.6 nM
same,IC50,LoVo,10.3 nM

# From patent publication US7795457B2, “Carbamate compounds” (Kosan Biosciences Incorporated, priority 2007, dated 2010)
